Reference: patent publication US11168095B2, “ASK1 inhibiting agents” (BIOGEN MA INC., priority 2017, dated 2021)

Target: ASK1 T838 auto phosphorylation in HEK-293T cells (Homo sapiens (Human), UniProt Q99683)
Test: ASK1 (AUTO PHOS T838) assay, MSD format
Type: cell-based
Conditions: HEK 293T cells transfected with ASK1-V5 full length plasmid, compounds 1 hr at 37° C.; read-out: IC50
Procedure: The plates were incubated at 37° C. overnight. Media on plates was changed to OPTI-MEM, serum free media and cells were transfected with 9 μg of ASK1-V5 tagged full length plasmid using Lipofectamine 2000 (Invitrogen) and the plates were incubated at 37° C. overnight. Cells were trypsinized, counted on Nexcellometer and plated into 96 well tissue culture plates with 100,000 cells/well and 200 μL media. Cells were incubated for 4 hr at 37° C. then ASK1 compounds were added using a HP 300e. Compounds were tested at 20 μM with 3 fold, 10 point dilution points then incubated for 1 hr at 37° C. A lysis buffer (Cell Signaling) was prepared with protease and phosphatase inhibitor and maintained at 4° C. until use. Media from cells was discarded and 120 μL of cold lysis buffer was added to the cells, the plate was shaken 4° C. for 1 hr. Lysate was mixed using Apricot liquid handler; aspirating up and down 16 times at high speed using 50 μL volume. […] Plates were then incubated on a plate shaker overnight at 4° C. Plates were washed 3× with MSD wash buffer and 50 μL of rabbit anti-pASK1 T838 antibody was added to the wells and incubated for 2 hr at room temperature on a plate shaker. Plates were then washed and 50 μL of goat anti-rabbit sulfa-tag (1:500 dilution) was added to wells, and incubated for 1 hr at room temperature on a plate shaker. […] Plates were immediately read on a MSD Instrument Reader where chemoluminecense signal was measured. Data was analyzed using Graph Pad or Genedata, the data was normalized and plotted, % activity versus log of compound concentration. The IC50 values were obtained from a 4 parameter fit.

Sequence of ASK1 T838 auto phosphorylation in HEK-293T cells (Q99683 whole entry): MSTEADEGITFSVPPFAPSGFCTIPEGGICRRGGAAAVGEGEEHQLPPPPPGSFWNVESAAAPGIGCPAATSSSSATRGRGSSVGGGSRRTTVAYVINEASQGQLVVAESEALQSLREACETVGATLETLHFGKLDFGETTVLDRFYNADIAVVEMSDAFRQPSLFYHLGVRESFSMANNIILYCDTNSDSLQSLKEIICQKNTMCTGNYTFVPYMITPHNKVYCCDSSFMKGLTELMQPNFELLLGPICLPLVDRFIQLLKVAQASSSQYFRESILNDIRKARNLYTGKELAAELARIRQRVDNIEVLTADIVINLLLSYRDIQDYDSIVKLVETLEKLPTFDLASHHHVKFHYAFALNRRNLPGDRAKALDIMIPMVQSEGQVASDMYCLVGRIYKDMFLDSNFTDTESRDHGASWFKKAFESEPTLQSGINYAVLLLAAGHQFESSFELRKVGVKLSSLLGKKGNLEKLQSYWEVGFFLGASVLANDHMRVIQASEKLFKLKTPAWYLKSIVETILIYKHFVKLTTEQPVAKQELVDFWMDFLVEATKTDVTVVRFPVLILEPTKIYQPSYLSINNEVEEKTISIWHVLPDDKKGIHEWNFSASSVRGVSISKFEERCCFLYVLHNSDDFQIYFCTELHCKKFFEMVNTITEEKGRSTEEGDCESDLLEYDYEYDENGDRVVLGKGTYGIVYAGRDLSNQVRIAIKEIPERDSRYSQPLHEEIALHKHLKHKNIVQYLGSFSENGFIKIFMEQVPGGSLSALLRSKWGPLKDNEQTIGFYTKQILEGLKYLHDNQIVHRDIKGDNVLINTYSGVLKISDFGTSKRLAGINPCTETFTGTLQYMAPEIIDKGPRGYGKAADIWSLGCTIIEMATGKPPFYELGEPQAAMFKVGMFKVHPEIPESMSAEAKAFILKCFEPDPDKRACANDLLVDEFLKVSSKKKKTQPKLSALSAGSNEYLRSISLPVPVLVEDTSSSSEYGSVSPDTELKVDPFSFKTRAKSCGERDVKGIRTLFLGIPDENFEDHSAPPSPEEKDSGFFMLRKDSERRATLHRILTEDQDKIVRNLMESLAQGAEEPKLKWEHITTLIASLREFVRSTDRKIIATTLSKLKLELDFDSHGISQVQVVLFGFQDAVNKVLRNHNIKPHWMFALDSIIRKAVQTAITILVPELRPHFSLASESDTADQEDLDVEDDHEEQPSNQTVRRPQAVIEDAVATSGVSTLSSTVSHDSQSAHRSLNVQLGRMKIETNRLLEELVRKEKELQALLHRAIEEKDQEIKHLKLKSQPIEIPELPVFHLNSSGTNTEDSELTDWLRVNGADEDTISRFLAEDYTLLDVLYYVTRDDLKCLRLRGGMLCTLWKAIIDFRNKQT

IC50, < 1 µM:
C[C@H]1CCCOc2cc(F)c(N3CCN(C)CC3)cc2C(=O)Nc2cccc(n2)-c2nncn21 [Example 105, (S)-5^4-Fluoro-10-methyl-5^5-(4-methylpiperazin-1-yl)-1^4H-6-oxa-3-aza-2(2,6)-pyridina-1(3,4)-triazola-5(1,2)-benzenacyclodecaphan-4-one]
C[C@H]1CCCOc2cc(F)c(-c3ccncc3F)cc2C(=O)Nc2cccc(n2)-c2nncn21 [Example 109, (S)-5^4-Fluoro-5^5-(3-fluoropyridin-4-yl)-10-methyl-1^4H-6-oxa-3-aza-2(2,6)-pyridina-1(3,4)-triazola-5(1,2)-benzenacyclodecaphan-4-one]
Cc1cn(-c2cc3c(cc2F)OCC[C@H](C)Cn2cnnc2-c2cccc(n2)NC3=O)cn1 [Example 133, (S)-5^4-Fluoro-9-methyl-5^5-(4-methyl-1H-imidazol-1-yl)-1^4H-6-oxa-3-aza-2(2,6)-pyridina-1(3,4)-triazola-5(1,2)-benzenacyclodecaphan-4-one]
C[C@@H]1CCOc2cc(F)c(-c3cnn4c3CN(C)CC4)cc2C(=O)Nc2cccc(n2)-c2nncn2C1 [Example 132, (R)-5^4-Fluoro-9-methyl-5^5-(5-methyl-4,5,6,7-tetrahydropyrazolo[1,5-a]pyrazin-3-yl)-1^4H-6-oxa-3-aza-2(2,6)-pyridina-1(3,4)-triazola-5(1,2)-benzenacyclodecaphan-4-one]
C[C@H]1CCOc2cc(F)c(-c3cnn4c3CN(C)CC4)cc2C(=O)Nc2cccc(n2)-c2nncn2C1 [Example 131, (S)-5^4-Fluoro-9-methyl-5^5-(5-methyl-4,5,6,7-tetrahydropyrazolo[1,5-a]pyrazin-3-yl)-1^4H-6-oxa-3-aza-2(2,6)-pyridina-1(3,4)-triazola-5(1,2)-benzenacyclodecaphan-4-one]
C[C@H]1CCOc2cc(F)c(-c3ccc(F)nc3)cc2C(=O)Nc2cccc(n2)-c2nncn2C1 [Example 129, (S)-5^4-Fluoro-5^5-(6-fluoropyridin-3-yl)-9-methyl-1^4H-6-oxa-3-aza-2(2,6)-pyridina-1(3,4)-triazola-5(1,2)-benzenacyclodecaphan-4-one]
CC(C)(C#N)c1ccc2c(c1)C(=O)Nc1cccc(n1)-c1nncn1CCCCO2 [Example 51, 2-Methyl-2-(4-oxo-1^4H-6-oxa-3-aza-2(2,6)-pyridina-1(3,4)-triazola-5(1,2)-benzenacyclodecaphane-5^5-yl)propanenitrile]
CN(C)CCn1cc(-c2cc3c(cc2C(F)(F)F)OCCCCn2cnnc2-c2cccc(n2)NC3=O)cn1 [Example 77, 5^5-(1-(2-(Dimethylamino)ethyl)-1H-pyrazol-4-yl)-5^4-(trifluoromethyl)-1^4H-6-oxa-3-aza-2(2,6)-pyridina-1(3,4)-triazola-5(1,2)-benzenacyclodecaphan-4-one]
C[C@H]1CCOc2cc(F)c(N3CCOCC3)cc2C(=O)Nc2cccc(n2)-c2nncn2C1 [Example 126, (S)-5^4-Fluoro-9-methyl-5^5-morpholino-1^4H-6-oxa-3-aza-2(2,6)-pyridina-1(3,4)-triazola-5(1,2)-benzenacyclodecaphan-4-one]
C[C@H]1CCOc2cc(F)c(-c3cccnc3F)cc2C(=O)Nc2cccc(n2)-c2nncn2C1 [Example 128, (S)-5^4-Fluoro-5^5-(2-fluoropyridin-3-yl)-9-methyl-1^4H-6-oxa-3-aza-2(2,6)-pyridina-1(3,4)-triazola-5(1,2)-benzenacyclodecaphan-4-one]
CN1CCn2ncc(-c3cc4c(cc3F)OCC/C=C\Cn3cnnc3-c3cccc(n3)NC4=O)c2C1 [Example 182, (Z)-5^4-Fluoro-5^5-(5-methyl-4,5,6,7-tetrahydropyrazolo[1,5-a]pyrazin-3-yl)-1^4H-6-oxa-3-aza-2(2,6)-pyridina-1(3,4)-triazola-5(1,2)-benzenacycloundecaphan-9-en-4-one]
